# Legend:
# [1] = Dissolution experiment, paddle method, 900 ml medium, 50 rpm; format: physicochemical
# Description: By using the prepared Comparative example 1, dissolution experiments was made in a buffer having a pH of 1.2 (prepared by mixing 2.0 g of sodium chloride with 7.0 ml of hydrochloric acid and adding purified water until it totals 1 liter), a buffer having a pH of 4.0 (prepared by mixing 0.05 mol/L acetic acid solution with 0.05 mol/L sodium acetate solution (41:9) and adjusting a pH to 4.0), a buffer having a pH of 6.8 (prepared by mixing 250 ml of 0.2 mol/L potassium dihydrogen phosphate test solution with 118 ml of 0.2 mol/L sodium hydroxide test solution and adding water until it totals 1 liter), and purified water. In this instance, a paddle method was used, an amount of a dissolution medium was 900 ml, and a paddle rotation rate was 50 rpm. Like Comparative example 1, the dissolution of Examples 1-4 in a buffer having a pH of 1.2 was evaluated. Like Example 1, the dissolution of Examples 5-10 in a buffer having a pH of 1.2 was evaluated. Like Comparative example 1, the dissolution of Example 9 in different dissolution media was evaluated.
# [2] = relative to losartan; cited from earlier work
smiles,measurement,setting,value
"CCCCc1nc(Cl)c(C(=O)O)n1Cc1ccc(-c2ccccc2-c2nnn[nH]2)cc1 [losartan carboxylic acid, 2-butyl-4-chloro-1-[(2′-(1H-tetrazol-5-yl)[1,1′-biphenyl]-4-yl)methyl]-1H-imidazole-5-carboxylic acid]",behaviour on contact with purified water or a buffer,[1],gelled
same,half life compared with losartan,[2],longer

# — patent US20120095067A1, “PHARMACEUTICAL COMPOSITION CONTAINING CARBOXYLOSARTAN AND A PRODUCTION METHOD THEREFOR” (JIN YANG PHARM. CO., LTD., priority 2009, published 2012)
